In PubChem BioAssay AID2060889 (Molecular Pharmacology Branch, DTP, NCI, 2025):

System: LG0567-F671-PDC complex spheroids viability
Test: Anticancer human tumor LG0567-F671-PDC patient-derived lung adenocarcinoma cell line growth inhibition [RAS]
Settings: for IC50: curve of first compound; for viability, T/C: stronger effect = lower value; active means viability on the fitted dose curve at most 10% of control; inactive means the rest
In short: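 Tumour cells grown as complex spheroids with HUVEC endothelial cells and mesenchymal stem cells, treated with RAS pathway inhibitor combinations. Each agent spans half-log steps from near clinical Cmax, or 10 microM where Cmax is unknown.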

[1] = second compound 0.000949 µM, first compound 0.00316 µM
[2] = second compound 0.000949 µM, first compound 0.01 µM
[3] = second compound 0.000949 µM, first compound 0.0316 µM
[4] = second compound 0.000949 µM, first compound 0.1 µM
[5] = second compound 0.000949 µM, first compound 0.316 µM
[6] = second compound 0.000949 µM, first compound 1 µM
[7] = second compound 0.003 µM, first compound 0.00316 µM
[8] = second compound 0.003 µM, first compound 0.01 µM
[9] = second compound 0.003 µM, first compound 0.0316 µM
[10] = second compound 0.003 µM, first compound 0.1 µM
[11] = second compound 0.003 µM, first compound 0.316 µM
[12] = second compound 0.003 µM, first compound 1 µM
[13] = second compound 0.00949 µM, first compound 0.00316 µM
[14] = second compound 0.00949 µM, first compound 0.01 µM
[15] = second compound 0.00949 µM, first compound 0.0316 µM
[16] = second compound 0.00949 µM, first compound 0.1 µM
[17] = second compound 0.00949 µM, first compound 0.316 µM
[18] = second compound 0.00949 µM, first compound 1 µM
[19] = second compound 0.03 µM, first compound 0.00316 µM
[20] = second compound 0.03 µM, first compound 0.01 µM
[21] = second compound 0.03 µM, first compound 0.0316 µM
[22] = second compound 0.03 µM, first compound 0.1 µM
[23] = second compound 0.03 µM, first compound 0.316 µM
[24] = second compound 0.03 µM, first compound 1 µM
[25] = second compound 0.0949 µM, first compound 0.00316 µM
[26] = second compound 0.0949 µM, first compound 0.01 µM
[27] = second compound 0.0949 µM, first compound 0.0316 µM
[28] = second compound 0.0949 µM, first compound 0.1 µM
[29] = second compound 0.0949 µM, first compound 0.316 µM
[30] = second compound 0.0949 µM, first compound 1 µM
[31] = second compound 0.3 µM, first compound 0.00316 µM
[32] = second compound 0.3 µM, first compound 0.01 µM
[33] = second compound 0.3 µM, first compound 0.0316 µM
[34] = second compound 0.3 µM, first compound 0.1 µM
[35] = second compound 0.3 µM, first compound 0.316 µM
[36] = second compound 0.3 µM, first compound 1 µM
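Further: spheroids exposed to compound for seven days before readout.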
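Wherever IC50 is given: luminescence signal used as a proxy for viable cells.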

O=C(c1ccc(F)c(F)c1Nc1ccc(I)cc1F)N1CC(O)([C@@H]2CCCCN2)C1 + CCn1c(-c2cccnc2C(C)OC)c2c3cc(ccc31)N1CCOC(CC(NC(=O)C(C(C)C)N(C)C(=O)C3(F)CCN(C(=O)C#CC(C)(C)N(C)C)CC3)C(=O)N3CCCC(N3)C(=O)OCC(C)(C)C2)C1
< 3.16 nM: IC50 (second compound 0.000949 µM) | IC50 (second compound 0.003 µM) | IC50 (second compound 0.00949 µM) | IC50 (second compound 0.03 µM) | IC50 (second compound 0.0949 µM) | IC50 (second compound 0.3 µM)
active: viability, T/C [3] 9.69% | viability, T/C [4] 6.79% | viability, T/C [5] 3.71% | viability, T/C [6] 1.41% | viability, T/C [9] 9.13% | viability, T/C [10] 7.29% | viability, T/C [11] 3.35% | viability, T/C [12] 1.31% | viability, T/C [15] 7.73% | viability, T/C [16] 7.78% | viability, T/C [17] 3.51% | viability, T/C [18] 1.48% | viability, T/C [20] 10.1% | viability, T/C [21] 7.96% | viability, T/C [22] 5.76% | viability, T/C [23] 3.19% | viability, T/C [24] 1% | viability, T/C [25] 8.93% | viability, T/C [26] 7.87% | viability, T/C [27] 7.13% | viability, T/C [28] 4.53% | viability, T/C [29] 2.24% | viability, T/C [30] 0.97% | viability, T/C [31] 7.33% | viability, T/C [32] 7.35% | viability, T/C [33] 5.27% | viability, T/C [34] 3.14% | viability, T/C [35] 1.96% | viability, T/C [36] 0.65%
inactive: viability, T/C [1] 13.4% | viability, T/C [2] 11.5% | viability, T/C [7] 12.6% | viability, T/C [8] 11.1% | viability, T/C [13] 13.7% | viability, T/C [14] 11.1% | viability, T/C [19] 10.9%

C=CC(=O)N1CCN(c2nc(OCC3CCCN3C)nc3c(F)c(-c4nc(N)cc(C)c4C(F)(F)F)c(Cl)cc23)C(C)C1 (centres undefined) + CCn1c(-c2cccnc2C(C)OC)c2c3cc(ccc31)N1CCOC(CC(NC(=O)C(C(C)C)N(C)C(=O)C3(F)CCN(C(=O)C#CC(C)(C)N(C)C)CC3)C(=O)N3CCCC(N3)C(=O)OCC(C)(C)C2)C1
inactive: viability, T/C [1] 13.9% | viability, T/C [2] 13.6% | viability, T/C [3] 13.3% | viability, T/C [4] 14.4% | viability, T/C [5] 15.2% | viability, T/C [6] 15.5% | viability, T/C [7] 12.5% | viability, T/C [8] 14.6% | viability, T/C [9] 13.8% | viability, T/C [10] 13.8% | viability, T/C [11] 19.5% | viability, T/C [12] 15.4% | viability, T/C [13] 15.2% | viability, T/C [14] 14.1% | viability, T/C [15] 12.8% | viability, T/C [16] 14.5% | viability, T/C [17] 14.1% | viability, T/C [18] 14.4% | viability, T/C [19] 13.6% | viability, T/C [20] 13.9% | viability, T/C [21] 14.8% | viability, T/C [22] 13.3% | viability, T/C [23] 13.4% | viability, T/C [24] 15.1% | viability, T/C [25] 12.6% | viability, T/C [26] 12.8% | viability, T/C [27] 11.9% | viability, T/C [28] 12.3% | viability, T/C [29] 12.9% | viability, T/C [30] 12.4% | viability, T/C [31] 9.04% | viability, T/C [32] 8.65% | viability, T/C [33] 10.4% | viability, T/C [34] 13.6% | viability, T/C [35] 12.6% | viability, T/C [36] 11.6%
< 3.16 nM: IC50 (second compound 0.000949 µM) | IC50 (second compound 0.003 µM) | IC50 (second compound 0.00949 µM) | IC50 (second compound 0.03 µM) | IC50 (second compound 0.0949 µM) | IC50 (second compound 0.3 µM)
